Test results published in patent US20150276714A1, “METHOD OF IDENTIFYING OR EVALUATING BENEFICIAL ACTIVES AND COMPOSITIONS CONTAINING THE SAME” (The Procter & Gamble Company, priority 2012, published 2015).

Key:
[1] = tested on: human dermal fibroblasts (BJ cell line); experiment: Oxygen consumption rate (oxidative phosphorylation), XF Extracellular Flux Analyzer; assay type: cell-based
From the text: This method enables the non-lethal, simultaneous detection of metabolic indicators associated with the oxidative phosphorylation and glycolysis metabolic pathways in a controlled environment. The method also enables the collection of kinetic data. When assessing the metabolic response to a stressor or test agent, it is important to assess both metabolic pathways simultaneously to understand how the two metabolic pathways interact with the stressor or test agent and/or to one another. Additionally, it is important to monitor the metabolic pathways in real time (i.e., repeating periodic measurements) to observe trends and/or transient responses that may be missed when using methods that provide only static data. Thus, destructive tests are not suitable for use herein since they typically only allow for a single measurement. With regard to the fibroblasts discussed above in FIGS. 5A, 5B, 5C, 5D, 5E, 6, 7A, 7B, 7C, 7D, 7E and 8, frozen human dermal fibroblasts were obtained from the BJ cell line commercially available from ATCC, Bethesda, Md. […] Oxygen consumption rate and extracellular acidification rate may be detected using an XF Extracellular Flux Analyzer or equivalent. […]

[2] = tested on: human dermal fibroblasts (BJ cell line); experiment: Extracellular acidification rate (glycolysis), XF Extracellular Flux Analyzer; assay type: cell-based
From the text: This method enables the non-lethal, simultaneous detection of metabolic indicators associated with the oxidative phosphorylation and glycolysis metabolic pathways in a controlled environment. The method also enables the collection of kinetic data. When assessing the metabolic response to a stressor or test agent, it is important to assess both metabolic pathways simultaneously to understand how the two metabolic pathways interact with the stressor or test agent and/or to one another. Additionally, it is important to monitor the metabolic pathways in real time (i.e., repeating periodic measurements) to observe trends and/or transient responses that may be missed when using methods that provide only static data. Thus, destructive tests are not suitable for use herein since they typically only allow for a single measurement. With regard to the fibroblasts discussed above in FIGS. 5A, 5B, 5C, 5D, 5E, 6, 7A, 7B, 7C, 7D, 7E and 8, frozen human dermal fibroblasts were obtained from the BJ cell line commercially available from ATCC, Bethesda, Md. The fibroblasts were grown to 70-80% confluence in a culture medium of Eagle's Minimum Essential Medium (“EMEM”) supplemented with 10% fetal bovine serum (“FBS”) and gentamicin/amphotericin B ×500 solution (EMEM and FBS are available from ATCC, and gentamicin/amphotericin B ×500 solution is available from Invitrogen). The fibroblasts were plated at 1×10^5 cells per well in Gelatin-coated plates 24 hours prior to testing. Each well included 100 μL of the fibroblast medium described above. A test medium was made from Dulbecco's Modified Eagle Medium (available from Seahorse Bioscience), 25 mM glucose and 1 mM pyruvate. The test medium was warmed to 37° C. and the pH adjusted to 7.4. The cells were grown and plated at 37° C. and 5% CO2 air. The fibroblast medium in the wells was replaced by the test medium 1 hour prior to taking measurements. Oxygen consumption rate and extracellular acidification rate may be detected using an XF Extracellular Flux Analyzer or equivalent. […]

NC(=O)c1cccnc1 [niacinamide]
effect on oxphos metabolism ([1]; 1.0 mM niacinamide by itself): no significant affect on the oxphos metabolism
effect on OCR in presence of hydrogen peroxide ([1]; niacinamide 1.0 mM in combination with […] hydrogen peroxide): lessen the initial decrease in OCR somewhat
effect on hydrogen peroxide-induced decrease in glycolysis metabolism ([2]; plate 1, 0.1 mM and […] niacinamide in combination with […] hydrogen peroxide): lessen the detrimental effect of the hydrogen peroxide on glycolysis metabolism
effect on hydrogen peroxide-induced decrease in extracellular acidification rate ([2]; plate 2, 0.5 mM and 1.0 mM niacinamide in combination with […] hydrogen peroxide): prevent the acidification rate from decreasing below the basal value
effect on fibroblast glycolysis ([2]; plate 2, 1.0 mM niacinamide by itself): substantially no effect on fibroblast glycolysis
